Assay results from the NIST ThermoML archive (doi:10.1021/je060271a).
Numbers after ± are expanded uncertainties.

Conditions: Liquid, Vibrating tube method

CCCC(=O)OCC(COC(=O)CCC)(COC(=O)CCC)COC(=O)CCC [pentaerythritol tetrabutyrate]
mass density (323.14 K, 26626 kPa): 1043 ± 1.3 kg/m3 | mass density (323.14 K, 26670 kPa): 1042.8 ± 1.3 kg/m3 | mass density (323.14 K, 26714 kPa): 1042.8 ± 1.3 kg/m3 | mass density (323.14 K, 26767 kPa): 1043 ± 1.3 kg/m3 | mass density (323.14 K, 26810 kPa): 1043 ± 1.3 kg/m3 | mass density (323.14 K, 26863 kPa): 1043 ± 1.3 kg/m3 | mass density (323.14 K, 26908 kPa): 1043.1 ± 1.3 kg/m3 | mass density (323.14 K, 26952 kPa): 1043.1 ± 1.3 kg/m3 | mass density (323.14 K, 26996 kPa): 1043.1 ± 1.3 kg/m3 | mass density (323.14 K, 27582 kPa): 1043.5 ± 1.3 kg/m3 | mass density (323.14 K, 27638 kPa): 1043.5 ± 1.3 kg/m3 | mass density (323.14 K, 27684 kPa): 1043.6 ± 1.3 kg/m3 | mass density (323.14 K, 27740 kPa): 1043.6 ± 1.3 kg/m3 | mass density (323.14 K, 27788 kPa): 1043.6 ± 1.3 kg/m3 | mass density (323.14 K, 27834 kPa): 1043.6 ± 1.3 kg/m3 | mass density (323.14 K, 27946 kPa): 1043.8 ± 1.3 kg/m3 | mass density (323.14 K, 28044 kPa): 1043.9 ± 1.3 kg/m3 | mass density (323.14 K, 28300 kPa): 1044 ± 1.3 kg/m3 | mass density (323.14 K, 28359 kPa): 1044 ± 1.3 kg/m3 | mass density (323.14 K, 28792 kPa): 1044.3 ± 1.3 kg/m3 | mass density (323.14 K, 28843 kPa): 1044.3 ± 1.3 kg/m3 | mass density (323.14 K, 28902 kPa): 1044.3 ± 1.3 kg/m3 | mass density (323.14 K, 28941 kPa): 1044.3 ± 1.3 kg/m3 | mass density (323.14 K, 29012 kPa): 1044.3 ± 1.3 kg/m3 | mass density (323.14 K, 29875 kPa): 1044.9 ± 1.3 kg/m3 | mass density (323.14 K, 29913 kPa): 1045 ± 1.3 kg/m3 | mass density (323.14 K, 29948 kPa): 1045.1 ± 1.3 kg/m3 | mass density (323.14 K, 29992 kPa): 1045 ± 1.3 kg/m3 | mass density (323.14 K, 30269 kPa): 1045.3 ± 1.3 kg/m3 | mass density (323.14 K, 30315 kPa): 1045.2 ± 1.3 kg/m3 | mass density (323.14 K, 30353 kPa): 1045.4 ± 1.3 kg/m3 | mass density (323.14 K, 30391 kPa): 1045.3 ± 1.3 kg/m3 | mass density (323.14 K, 30431 kPa): 1045.3 ± 1.3 kg/m3 | mass density (323.14 K, 30476 kPa): 1045.2 ± 1.3 kg/m3 | mass density (323.14 K, 30514 kPa): 1045.3 ± 1.3 kg/m3 | mass density (323.14 K, 32076 kPa): 1046.4 ± 1.3 kg/m3 | mass density (323.14 K, 32110 kPa): 1046.4 ± 1.3 kg/m3 | mass density (323.14 K, 32957 kPa): 1046.8 ± 1.3 kg/m3 | mass density (323.14 K, 33000 kPa): 1046.9 ± 1.3 kg/m3 | mass density (323.14 K, 33035 kPa): 1046.8 ± 1.3 kg/m3 | mass density (323.14 K, 33078 kPa): 1046.9 ± 1.3 kg/m3 | mass density (323.14 K, 33115 kPa): 1046.9 ± 1.3 kg/m3 | mass density (323.14 K, 33350 kPa): 1047 ± 1.3 kg/m3 | mass density (323.14 K, 33751 kPa): 1047.3 ± 1.3 kg/m3 | mass density (323.14 K, 33878 kPa): 1047.3 ± 1.3 kg/m3 | mass density (323.14 K, 33919 kPa): 1047.4 ± 1.3 kg/m3 | mass density (323.14 K, 33970 kPa): 1047.4 ± 1.3 kg/m3 | mass density (323.15 K, 3349 kPa): 1027.1 ± 1.2 kg/m3 | mass density (323.15 K, 3467.5 kPa): 1027.3 ± 1.2 kg/m3 | mass density (323.15 K, 3496.8 kPa): 1027.3 ± 1.2 kg/m3 | mass density (323.15 K, 3562.1 kPa): 1027.3 ± 1.2 kg/m3 | mass density (323.15 K, 5277.4 kPa): 1028.8 ± 1.2 kg/m3 | mass density (323.15 K, 5278.3 kPa): 1028.7 ± 1.2 kg/m3 | mass density (323.15 K, 5281.4 kPa): 1028.8 ± 1.2 kg/m3 | mass density (323.15 K, 5284.5 kPa): 1028.8 ± 1.2 kg/m3 | mass density (323.15 K, 5287 kPa): 1028.7 ± 1.2 kg/m3 | mass density (323.15 K, 5288.9 kPa): 1028.7 ± 1.2 kg/m3 | mass density (323.15 K, 5289.7 kPa): 1028.8 ± 1.2 kg/m3 | mass density (323.15 K, 5290.8 kPa): 1028.8 ± 1.2 kg/m3 | mass density (323.15 K, 5291.3 kPa): 1028.8 ± 1.2 kg/m3 | mass density (323.15 K, 5291.6 kPa): 1028.8 ± 1.2 kg/m3 | mass density (323.15 K, 5292 kPa): 1028.8 ± 1.2 kg/m3 | mass density (323.15 K, 5292.5 kPa): 1028.8 ± 1.2 kg/m3 | mass density (323.15 K, 5292.8 kPa): 1028.8 ± 1.2 kg/m3 | mass density (323.15 K, 5293.4 kPa): 1028.7 ± 1.2 kg/m3 | mass density (323.15 K, 5293.7 kPa): 1028.9 ± 1.2 kg/m3 | mass density (323.15 K, 5293.9 kPa): 1028.8 ± 1.2 kg/m3 | mass density (323.15 K, 5294 kPa): 1028.7 ± 1.2 kg/m3 | mass density (323.15 K, 5294.2 kPa): 1028.9 ± 1.2 kg/m3 | mass density (323.15 K, 5295.1 kPa): 1028.9 ± 1.2 kg/m3 | mass density (323.15 K, 5295.9 kPa): 1029 ± 1.2 kg/m3 | mass density (323.15 K, 5296.1 kPa): 1028.7 ± 1.2 kg/m3 | mass density (323.15 K, 5296.6 kPa): 1028.7 ± 1.2 kg/m3
